Results from patent US9211310B2, “Use of a Chinese medicine composition in preparing medicaments for treating secondary prevention of myocardial infarction” (TASLY PHARMACEUTICAL GROUP CO., LTD, priority 2010, dated 2015).

Test system: patients after acute myocardial infarction
Assay: Life quality, Seattle Angina Questionnaire (SAQ), same clinical trial
Type: in vivo, human
Conditions: FAS
Text: 3508 patients who were in accordance with the diagnostic standards of AMI for 28 days to 2 years and differentiated as Qi deficiency and blood stagnation syndrome by TCM were studied. 0.5 g Chinese medicine composition prepared by the method of EXAMPLE 1 (Coded as QSYQ) was administrated half an hour after meal, 3 times per day.
There were 19 questions in the Seattle angina questionnaire (SAQ), including 5 parts: physical limitation (PL), anginal stability (AS), anginal frequency (AF), treatment satisfaction (TS) and disease perception (DP). After being given necessary explanation by doctors, the questions were answered independently by patients.
They included the overall survival time, angina pectoris score, TCM symptom score and life quality score, where angina pectoris score, TCM symptom score and life quality score were evaluated at randomization, in 1st, 3rd, 6th, 9th, 12th month after treatment and 18th month after follow-up.
All evaluation results of SAQ were described during the period of observation, and Wilcoxon rank sum test was used for inter-group comparison.
The evaluation results in the SAQ were depicted in different observations, and inter-group comparison was tested by Wilcoxon Rank-sum test.

CC(=O)Oc1ccccc1C(=O)O [Control group, aspirine]
SAQ Question 1-1 Other reasons, percent of patients (9 months after treatment): (0.17%) | SAQ Question 1-1 Severely limited, number of patients (9 months after treatment): 1 | SAQ Question 1-1 Severely limited, percent of patients (9 months after treatment): (0.06%) | SAQ Question 1-1 Slightly limited, number of patients (9 months after treatment): 67 | SAQ Question 1-1 Slightly limited, percent of patients (9 months after treatment): (3.84%) | SAQ Question 1-2 Mildly limited, number of patients (9 months after treatment): 29 | SAQ Question 1-2 Mildly limited, percent of patients (9 months after treatment): (1.66%) | SAQ Question 1-2 Moderately limited, number of patients (9 months after treatment): 7 | SAQ Question 1-2 Moderately limited, percent of patients (9 months after treatment): (0.40%) | SAQ Question 1-2 Not limited, number of patients (9 months after treatment): 1631 | SAQ Question 1-2 Not limited, percent of patients (9 months after treatment): (93.52%) | SAQ Question 1-2 Other reasons, number of patients (9 months after treatment): 5 | SAQ Question 1-2 Other reasons, percent of patients (9 months after treatment): (0.29%) | SAQ Question 1-2 Severely limited, number of patients (9 months after treatment): 0 | SAQ Question 1-2 Severely limited, percent of patients (9 months after treatment): (0.00%) | SAQ Question 1-2 Slightly limited, number of patients (9 months after treatment): 72 | SAQ Question 1-2 Slightly limited, percent of patients (9 months after treatment): (4.13%) | SAQ Question 1-6: Mildly limited, patients (%) (9 months after treatment): (15.79%) | SAQ Question 1-6: Moderately limited, patients (%) (9 months after treatment): (11.08%) | SAQ Question 1-6: Not limited, patients (%) (9 months after treatment): (37.31%) | SAQ Question 1-6: Other reasons, patients (%) (9 months after treatment): (0.86%) | SAQ Question 1-6: Severely limited, patients (%) (9 months after treatment): (2.93%) | SAQ Question 1-6: Slightly limited, patients (%) (9 months after treatment): (32.03%) | SAQ Question 1-7: Mildly limited, patients (%) (9 months after treatment): (21.69%) | SAQ Question 1-7: Moderately limited, patients (%) (9 months after treatment): (11.86%) | SAQ Question 1-7: Not limited, patients (%) (9 months after treatment): (17.87%) | SAQ Question 1-7: Other reasons, patients (%) (9 months after treatment): (3.07%) | SAQ Question 1-7: Severely limited, patients (%) (9 months after treatment): (14.29%) | SAQ Question 1-7: Slightly limited, patients (%) (9 months after treatment): (31.23%) | SAQ Question 1-8: Mildly limited, patients (%) (9 months after treatment): (24.55%) | SAQ Question 1-8: Moderately limited, patients (%) (9 months after treatment): (15.03%) | SAQ Question 1-8: Not limited, patients (%) (9 months after treatment): (11.96%) | SAQ Question 1-8: Other limited, patients (%) (9 months after treatment): (3.60%) | SAQ Question 1-8: Severely limited, patients (%) (9 months after treatment): (17.93%) | SAQ Question 1-8: Slightly limited, patients (%) (9 months after treatment): (26.93%) | 8th question: Dissatisfied, patients (%) (12 months after treatment): (0.29%) | 8th question: Highly satisfied, patients (%) (12 months after treatment): (25.29%) | 8th question: Mostly dissatisfied, patients (%) (12 months after treatment): (2.01%) | 8th question: Mostly satisfied, patients (%) (12 months after treatment): (60.09%) | 8th question: Partly satisfied, patients (%) (12 months after treatment): (12.33%) | 9th question: Few, patients (%) (12 months after treatment): (39.74%) | 9th question: Mild, patients (%) (12 months after treatment): (30.56%) | 9th question: Moderate, patients (%) (12 months after treatment): (6.82%) | 9th question: Severe, patients (%) (12 months after treatment): (0.97%) | 9th question: Uneffective, patients (%) (12 months after treatment): (21.90%) | 10th question: Dissatisfied, patients (%) (12 months after treatment): (19.50%) | 10th question: Highly satisfied, patients (%) (12 months after treatment): (7.57%) | 10th question: Mostly dissatisfied, patients (%) (12 months after treatment): (19.21%) | 10th question: Mostly satisfied, patients (%) (12 months after treatment): (30.85%) | 10th question: Partly dissatisfied, patients (%) (12 months after treatment): (22.88%) | 11th question: Continuously worried, patients (%) (12 months after treatment): (3.15%) | 11th question: No worried, patients (%) (12 months after treatment): (7.11%) | 11th question: Occasionally worried, patients (%) (12 months after treatment): (40.60%) | 11th question: Often worried, patients (%) (12 months after treatment): (9.23%) | 11th question: Seldom worried, patients (%) (12 months after treatment): (39.91%) | SAQ 4th question, 1-2 times per week: % of patients (12 months after treatment): (10.61%) | SAQ 4th question, 1-2 times per week: number of patients (12 months after treatment): 185 | SAQ 4th question, 1-3 times per week: % of patients (12 months after treatment): (4.24%) | SAQ 4th question, 1-3 times per week: number of patients (12 months after treatment): 74 | SAQ 4th question, <1 time per week: % of patients (12 months after treatment): (16.51%) | SAQ 4th question, <1 time per week: number of patients (12 months after treatment): 288 | SAQ 4th question, Not used: % of patients (12 months after treatment): (64.56%) | SAQ 4th question, Not used: number of patients (12 months after treatment): 1126 | SAQ 4th question, ≧3 times per week: % of patients (12 months after treatment): (3.96%) | SAQ 4th question, ≧3 times per week: number of patients (12 months after treatment): 69 | SAQ 4th question, ≧4 times per day: % of patients (12 months after treatment): (0.11%) | SAQ 4th question, ≧4 times per day: number of patients (12 months after treatment): 2 | SAQ 5th question, 1-2 times per week: % of patients (12 months after treatment): (32.00%) | SAQ 5th question, 1-2 times per week: number of patients (12 months after treatment): 558 | SAQ 5th question, 1-3 times per day: % of patients (12 months after treatment): (6.14%) | SAQ 5th question, 1-3 times per day: number of patients (12 months after treatment): 107 | SAQ 5th question, <1 time per week: % of patients (12 months after treatment): (29.93%) | SAQ 5th question, <1 time per week: number of patients (12 months after treatment): 522 | SAQ 5th question, No onset: % of patients (12 months after treatment): (5.28%) | SAQ 5th question, No onset: number of patients (12 months after treatment): 92 | SAQ 5th question, ≧3 times per week: % of patients (12 months after treatment): (25.86%) | SAQ 5th question, ≧3 times per week: number of patients (12 months after treatment): 451
